Molecules are shown by their SMILES.

The test system of one assay is wildtype left atria. The assay is described as follows: Transmembrane potential recordings in isolated, superfused left atria, wild type. Set-up: species or system mouse. To be noted: sharp electrodes. The method, then:
(§1) Transmembrane action potentials were recorded from isolated superfused left atria using borosilicate glass microelectrodes (tip resistance 15-30 MΩ), filled with 3 M KCl. […] LA were paced at different cycle lengths at 2 ms pulse width at 2× diastolic threshold through bipolar platinum electrodes. APD was analysed off line (spike 2, CED, UK). After 15 min pacing for equilibration, preparations were paced successively at increasing frequencies from 0.5 to 10 Hz, with 200 beats at each frequency to ensure steady state prior to recording.

Assay [1] has as its system Pitx2c+/- mouse heart (left atrium). The assay is described as follows: Electrophysiological study in the isolated Langendorff-perfused beating heart, Pitx2c+/- mice. From the text:
(§2) The inventors studied the effects of the sodium channel blocker flecainide in the isolated, beating heart of wild type mice and mice with a heterozygous deletion of the Pitx2c gene. This mouse model (provided by Nigel Brown, St George's London) is an established model for reduced Pitx2 mRNA expression that is susceptible to AF. […] PITX2c^+/− and WT hearts (3-4 months old), were rapidly excised and Langendorff-perfused to record left atrial (LA) monophasic action potential duration. In this preparation, the beating heart is perfused with a warm, oxygenated modified Krebs-Henseleit solution containing (in mmol/1): NaCl 118; NaHCO3 24.88; KH2PO 1.18; Glucose 5.55; Na-Pyruvate 5; MgSO4 0.83; CaCl2 1.8; KCl 3.52 (95% O2-5% CO2, pH 7.4) at constant perfusion pressure (100±5 mmHg) and coronary flow (4±0.5 ml/min). Thereby, detailed electrophysiological measurements can be taken for 1-2 hours in the beating, functioning, intact heart (perfusate temperature 37° C., perfusion flow rate 3-5 mL/min) (Fabritz et al., Basic Res Cardiol 2003; 98:25-32). An octapolar murine electrophysiology catheter (0.5 mm electrode spacing, CIB'ER MOUSE, NuMED, Hopkinton, N.Y., USA) was inserted into the right atrium (RA) and right ventricle for pacing. Atrial and ventricular electrograms and monophasic action potential (MAP) from the left atrium were simultaneously recorded. After instrumentation, the hearts were subjected to a stabilization period of 10 minutes, followed by observation of spontaneous sinus rhythm for 5 minutes to provoke repolarization-related arrhythmias. Then the right atrium was paced at constant physiological heart rates (80-120 ms paced cycle length) for 1.5 minutes of pacing per heart rate to record steady-state action potential duration, and premature right atrial stimulation was performed using trains of 8 beats following by a premature stimulus in 2 ms steps to determine the effective refractory period (ERP) and inducibility of arrhythmias. Arrhythmias>1 second were counted. The pacing protocol was repeated after adding flecainide acetate (1 μm) to the perfusate. Experiments were accepted for analysis of action potential duration and activation time if they met published quality criteria and if MAPs were stable. […] were accepted for analysis of action potentials and activation times, and signals>0.5 mV amplitude were accepted for evaluation of arrhythmias. Recordings were manually screened for arrhythmias. Atrial fibrillation was defined as >5 closely couple polymorphic consecutive atrial ectopic beats with a cycle length shorter than sinus-rhythm cycle length.

For another assay, the system named is Pitx2c+/- left atria. The assay is described as follows: Transmembrane potential recordings in isolated, superfused left atria, Pitx2c+/-. On the set-up: species or system mouse. The settings on record: sharp electrodes. The protocol: as §1
The subject of assay [2] is wild type mouse heart (left atrium). The assay is described as follows: Electrophysiological study in the isolated Langendorff-perfused beating heart, wild type mice.
Text: as §2

Regarding `O=C(NCC1CCCCN1)c1cc(OCC(F)(F)F)ccc1OCC(F)(F)F` (centres unmarked) [flecainide], the resting membrane potential result in the assay with wildtype left atria and in the assay with Pitx2c+/- left atria was “did not alter resting membrane potential” in each case. For the same compound, the “effective refractory period (ERP)” value in assay [1] (Pitx2c+/- hearts after flecainide perfusion, compared with wild-type) is “increases effective refractory periods”. Besides, the “suppression of inducible atrial fibrillation” value is “suppressed atrial fibrillation in all Pitx2c+/− hearts” in assay [1] (Pitx2c+/- hearts with AF at baseline (8/21), flecainide acetate 1 μm in perfusate, premature atrial stimulation) and “did not suppress atrial fibrillation” in assay [2] (wild type hearts, flecainide acetate 1 μm in perfusate, premature atrial stimulation). In addition, the “atrial action potential duration (APD)” value in assay [1] (Pitx2c+/- hearts, flecainide perfusion, paced cycle lengths 80-100-120 ms) is given as “does not alter atrial APD”; in assay [2] (WT hearts, flecainide perfusion, paced cycle lengths 80-100-120 ms), “does not alter atrial APD”. The post-repolarization refractoriness in assay [1] (Pitx2c+/- mice, 80 ms paced cycle length, flecainide perfusion) stood at 12 ms; in assay [2] (WT mice, 80 ms paced cycle length, flecainide perfusion), 7.5 ms. Further, the atrial activation times entry is “marked effect” in assay [1] (Pitx2c+/- mice, after flecainide perfusion) and “negligible effect” in assay [2] (wild-type mice, after flecainide perfusion). For the same compound, the hearts with arrhythmias in assay [2] (wild type hearts with flecainide (baseline 4/16), arrhythmias >1 second counted) is on record as 4/11.

For the compound `CC(C)NCC(O)c1ccc(NS(C)(=O)=O)cc1` (centres unmarked) [sotalol, d,l sotalol], the “atrial APD” value in assay [1] (Pitx2c+/- hearts, sotalol 10 μM, three pairs of mice) is “did not alter atrial APD”; in assay [2] (WT hearts, sotalol 10 μM, three pairs of mice) it was “prolonged atrial APD”.

The values above are taken from patent publication US20170121768A1, “ATRIAL FIBRILLATION THERAPY” (The University of Birmingham, priority 2014, published 2017).
